Values of other authors, collected in US20230380420A1, “HARD SURFACE DISINFECTING COMPOSITION” (priority 2020, published 2023).
Where two headings read alike, the source gives them in different places.

Conditions: room temperature

Row | SMILES | ~δp (alcohols) [MPa^1/2] | ~δp (glycol ethers) [MPa^1/2] | other results
1 | OCC(Cl)CCl (stereo not drawn) [2,3-dichloropropanol] | ~9.2 | – | –
2 | CCCCOCCOCCO [diethylene glycol mono-n-butyl ether] | – | ~7.0 | –
3 | CCCOCC(C)O (stereo not drawn) [propylene glycol monopropyl ether] | – | ~5.6 | –
4 | COCCOCCO [diethylene glycol monomethyl ether] | – | ~7.8 | –
5 | COCCOCCOCCO [triethylene glycol monomethyl ether] | – | ~7.6 | –
6 | CCO [ethanol] | ~8.8 | – | –
7 | CCCCOCCO [ethylene glycol monobutyl ether] | – | ~5.1 | –
8 | OC1CCCCC1 [cyclohexanol] | ~4.1 | – | –
9 | CCCO [1-propanol] | ~6.8 | – | –
10 | CCCCOCC(C)O (stereo not drawn) [propylene glycol monobutyl ether] | – | ~4.5 | –
11 | CCCCC(CC)CO (stereo not drawn) [2-ethyl-hexanol] | ~3.3 | – | –
12 | CCCC(C)O (stereo not drawn) [2-pentanol] | ~6.4 | – | –
13 | COCCO [ethylene glycol monomethyl ether] | – | ~9.2 | –
14 | OCCOc1ccccc1 [ethylene glycol monophenyl ether] | – | ~5.7 | –
15 | CCCCO [1-butanol] | ~5.7 | – | –
16 | OCCOCc1ccccc1 [ethylene glycol monobenzyl ether] | – | ~5.9 | –
17 | CCOCC(C)O (stereo not drawn) [propylene glycol monoethyl ether] | – | ~6.5 | –
18 | CCCCCCCCC(C)O (stereo not drawn) [2-decanol] | ~10.0 | – | –
19 | CC(C)OCCO [ethylene glycol monoisopropyl ether] | – | ~8.2 | –
20 | CC(C)CCCCCO [isooctyl alcohol] | ~7.3 | – | –

Row | SMILES | ~δp (alcohols) [MPa^1/2] | ~δp (glycol ethers) [MPa^1/2] | other results
21 | CCOCCO [ethylene glycol monoethyl ether] | – | ~9.2 | –
22 | CCCCCCCC/C=C\CCCCCCCCO [oleyl alcohol] | ~2.6 | – | –
23 | CCCCCCCCO [octanol] | ~3.3 | – | –
24 | CCOCCOCCO [diethylene glycol monoethyl ether] | – | ~9.2 | –
25 | CCCCCCCC/C=C\CCCCCCCCOCCOCCOCCO [triethylene glycol monooleyl ether] | – | ~3.1 | –
26 | O [water] | – | – | δp: ≈ 16.0 MPa^1/2
27 | CC(C)O [2-propanol] | ~6.1 | – | –
28 | OCc1ccc(Cl)cc1 [4-chlorobenzyl alcohol] | ~7.5 | – | –
29 | CO [methanol] | ~12.3 | – | –
30 | CC(O)COC(C)C (stereo not drawn) [propylene glycol monoisopropyl ether] | – | ~6.1 | –
31 | OC1C=CCC1 (stereo not drawn) [2-cyclopentenyl alcohol] | ~7.6 | – | –
32 | COCC(C)O (stereo not drawn) [propylene glycol monomethyl ether] | – | ~6.3 | –
33 | CCCCCO [1-pentanol] | ~4.5 | – | –
34 | CCCCCCCCCCO [1-decanol] | ~10.0 | – | –
35 | CCCOCCO [ethylene glycol monopropyl ether] | – | ~8.2 | –
36 | CC(C)(C)O [t-butyl alcohol] | ~5.1 | – | –
37 | CC(C)COCC(C)O (stereo not drawn) [propylene glycol monoisobutyl ether] | – | ~4.7 | –
38 | C=CCO [2-propenol] | ~10.8 | – | –
39 | CCC(CC)CO [2-ethyl-1-butanol] | ~4.3 | – | –
